How the values were obtained:
B1 bradykinin receptor = target: T1, B1 bradykinin receptor (Homo sapiens, UniProt P46663)
T1 sequence (P46663 whole entry): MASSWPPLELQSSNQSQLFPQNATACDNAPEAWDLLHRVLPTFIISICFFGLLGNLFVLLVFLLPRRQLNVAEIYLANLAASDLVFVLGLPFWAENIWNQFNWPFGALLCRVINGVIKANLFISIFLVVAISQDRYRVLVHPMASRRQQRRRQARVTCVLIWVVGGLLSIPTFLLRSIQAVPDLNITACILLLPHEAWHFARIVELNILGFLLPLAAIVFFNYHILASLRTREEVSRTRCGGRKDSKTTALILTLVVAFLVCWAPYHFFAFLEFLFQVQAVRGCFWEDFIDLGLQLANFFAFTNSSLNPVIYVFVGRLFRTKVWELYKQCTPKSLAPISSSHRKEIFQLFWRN

[1] = target: T2, Endothelin receptor type B (Homo sapiens, UniProt P24530)
T2 sequence (P24530 whole entry): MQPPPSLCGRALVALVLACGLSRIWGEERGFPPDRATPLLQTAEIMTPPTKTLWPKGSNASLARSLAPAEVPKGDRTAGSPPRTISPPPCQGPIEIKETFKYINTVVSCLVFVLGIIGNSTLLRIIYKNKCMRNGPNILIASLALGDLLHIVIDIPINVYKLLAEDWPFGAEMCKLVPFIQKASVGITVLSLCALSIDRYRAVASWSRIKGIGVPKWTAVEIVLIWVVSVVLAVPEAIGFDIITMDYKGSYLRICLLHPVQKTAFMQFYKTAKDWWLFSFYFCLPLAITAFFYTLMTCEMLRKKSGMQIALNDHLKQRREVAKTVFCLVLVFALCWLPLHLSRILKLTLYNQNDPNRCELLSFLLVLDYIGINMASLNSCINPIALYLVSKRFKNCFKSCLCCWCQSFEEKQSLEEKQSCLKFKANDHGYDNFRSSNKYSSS

Glucocorticoid receptor = target: T3, Glucocorticoid receptor (Homo sapiens, UniProt P04150); type: functional
T3 sequence (P04150 whole entry): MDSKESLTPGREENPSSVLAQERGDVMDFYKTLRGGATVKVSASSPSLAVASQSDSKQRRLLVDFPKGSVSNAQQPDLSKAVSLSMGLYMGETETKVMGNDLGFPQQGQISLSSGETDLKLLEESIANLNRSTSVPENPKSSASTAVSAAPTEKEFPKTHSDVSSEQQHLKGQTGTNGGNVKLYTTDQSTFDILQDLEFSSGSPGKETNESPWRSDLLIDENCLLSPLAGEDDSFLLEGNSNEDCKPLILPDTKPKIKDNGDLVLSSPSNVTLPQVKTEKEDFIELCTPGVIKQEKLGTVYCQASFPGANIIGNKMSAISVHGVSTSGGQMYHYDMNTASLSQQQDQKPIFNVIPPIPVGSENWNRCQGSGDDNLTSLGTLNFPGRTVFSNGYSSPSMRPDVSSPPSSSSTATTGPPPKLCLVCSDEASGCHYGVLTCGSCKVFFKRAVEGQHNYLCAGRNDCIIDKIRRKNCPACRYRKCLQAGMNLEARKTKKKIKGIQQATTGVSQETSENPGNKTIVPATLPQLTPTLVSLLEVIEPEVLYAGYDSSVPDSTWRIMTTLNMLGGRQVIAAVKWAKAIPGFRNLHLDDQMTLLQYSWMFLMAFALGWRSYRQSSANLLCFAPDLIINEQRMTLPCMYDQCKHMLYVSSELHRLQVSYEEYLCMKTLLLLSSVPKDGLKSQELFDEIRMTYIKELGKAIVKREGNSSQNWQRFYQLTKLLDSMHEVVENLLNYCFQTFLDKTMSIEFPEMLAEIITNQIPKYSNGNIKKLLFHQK

[2] = target: T4, Muscarinic acetylcholine receptor M2 (Homo sapiens, UniProt P08172)
T4 sequence (P08172 whole entry): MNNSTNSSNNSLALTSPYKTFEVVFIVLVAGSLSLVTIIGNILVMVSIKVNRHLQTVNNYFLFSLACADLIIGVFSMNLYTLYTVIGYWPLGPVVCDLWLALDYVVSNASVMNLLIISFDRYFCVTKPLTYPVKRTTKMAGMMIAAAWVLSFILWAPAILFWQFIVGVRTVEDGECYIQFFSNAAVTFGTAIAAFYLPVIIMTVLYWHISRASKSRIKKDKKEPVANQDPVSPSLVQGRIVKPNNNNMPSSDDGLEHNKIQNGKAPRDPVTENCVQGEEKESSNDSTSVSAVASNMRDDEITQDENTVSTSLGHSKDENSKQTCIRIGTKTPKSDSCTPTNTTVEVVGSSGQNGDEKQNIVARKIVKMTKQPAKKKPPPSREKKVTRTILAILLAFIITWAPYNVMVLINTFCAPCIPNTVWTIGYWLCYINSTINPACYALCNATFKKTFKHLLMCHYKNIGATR

Progesterone receptor = target: T5, Progesterone receptor (Homo sapiens, UniProt P06401)
T5 sequence (P06401 whole entry): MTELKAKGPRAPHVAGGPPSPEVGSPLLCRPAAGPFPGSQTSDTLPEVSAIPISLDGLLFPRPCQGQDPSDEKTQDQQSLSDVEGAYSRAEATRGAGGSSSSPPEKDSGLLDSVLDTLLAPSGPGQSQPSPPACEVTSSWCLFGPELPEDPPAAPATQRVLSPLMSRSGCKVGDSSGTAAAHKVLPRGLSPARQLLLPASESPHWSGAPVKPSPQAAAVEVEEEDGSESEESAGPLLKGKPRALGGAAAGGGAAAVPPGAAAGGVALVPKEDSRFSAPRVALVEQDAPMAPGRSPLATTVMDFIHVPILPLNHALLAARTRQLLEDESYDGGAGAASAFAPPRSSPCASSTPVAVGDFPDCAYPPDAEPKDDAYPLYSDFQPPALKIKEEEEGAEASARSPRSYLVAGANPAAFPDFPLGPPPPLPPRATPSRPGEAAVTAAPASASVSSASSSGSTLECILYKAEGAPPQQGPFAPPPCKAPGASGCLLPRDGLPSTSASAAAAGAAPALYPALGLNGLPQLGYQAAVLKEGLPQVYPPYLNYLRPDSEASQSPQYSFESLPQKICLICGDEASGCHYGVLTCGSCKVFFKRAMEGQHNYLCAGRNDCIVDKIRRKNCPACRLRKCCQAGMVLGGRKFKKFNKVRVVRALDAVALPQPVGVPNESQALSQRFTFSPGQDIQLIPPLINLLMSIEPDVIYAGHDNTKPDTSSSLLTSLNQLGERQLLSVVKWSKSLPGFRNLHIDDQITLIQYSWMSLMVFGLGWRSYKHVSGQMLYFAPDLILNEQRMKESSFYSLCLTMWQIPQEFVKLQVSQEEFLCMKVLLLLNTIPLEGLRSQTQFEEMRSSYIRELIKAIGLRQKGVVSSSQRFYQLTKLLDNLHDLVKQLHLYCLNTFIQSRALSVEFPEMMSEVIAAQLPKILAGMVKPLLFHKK

[3] = target: 5-hydroxytryptamine receptor 2A (Homo sapiens, UniProt P28223); type: functional, cell-based
Also: assay procedure not described here.

Chain of 5-hydroxytryptamine receptor 2A (P28223 whole entry): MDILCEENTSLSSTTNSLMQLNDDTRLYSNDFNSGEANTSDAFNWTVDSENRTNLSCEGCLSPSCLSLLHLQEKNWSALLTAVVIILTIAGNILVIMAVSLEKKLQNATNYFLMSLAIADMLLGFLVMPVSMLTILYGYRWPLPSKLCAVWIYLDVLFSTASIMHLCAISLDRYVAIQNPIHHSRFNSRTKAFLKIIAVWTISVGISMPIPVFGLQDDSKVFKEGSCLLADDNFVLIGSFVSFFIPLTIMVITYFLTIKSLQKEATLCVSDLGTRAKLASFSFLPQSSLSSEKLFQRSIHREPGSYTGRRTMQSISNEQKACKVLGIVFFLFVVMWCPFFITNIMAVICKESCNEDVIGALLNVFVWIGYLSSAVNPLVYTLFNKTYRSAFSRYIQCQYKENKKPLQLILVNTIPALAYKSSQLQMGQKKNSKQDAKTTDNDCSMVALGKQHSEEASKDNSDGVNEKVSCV

Row | Structure (SMILES) | AC50 (B1 bradykinin receptor) [µM] | AC50 [1] [µM] | AC50 (Glucocorticoid receptor) [µM] | AC50 [2] [µM] | AC50 (Progesterone receptor) [µM] | AC50 [3] [µM]
1 | CC(=O)S[C@@H]1CC2=CC(=O)CC[C@]2(C)[C@H]2CC[C@@]3(C)[C@@H](CC[C@@]34CCC(=O)O4)[C@H]12 [SPIRONOLACTONE] | > 30 | > 30 | 5.5 | > 10 |  | 
2 | COC(=O)[C@H](c1ccccc1Cl)N1CCc2sccc2C1 [CLOPIDOGREL] | > 30 | > 30 | > 30 | > 10 | > 30 | 
3 | CCCN(CCC)CCc1cccc2c1CC(=O)N2 [ROPINIROLE] | > 30 | > 30 | > 30 | 12.1 | > 30 | 7.3

Source: ChEMBL document CHEMBL5291721, “A preclinical secondary pharmacology resource illuminates target-adverse drug reaction associations of marketed drugs” (Nat Commun, 2023)
